Tests used:
[1] = system: Staphylococcus aureus subsp. aureus ATCC® 29213™; assay: Broth microdilution MIC and MBC, S. aureus; type: cell-based; details: 37° C., 72 h, MBC and MIC values identical
Experimental: (§1) S. aureus and E. faecalis are Gram-positive pathogens, P. aeruginosa is a Gram-negative pathogen, and E. coli is a non-pathogenic Gram-negative organism.
(§2) The broth microdilution for determining the MIC and MBC of antimicrobial compounds was performed as previously described in Wayne, supra. Briefly, all compounds were serially diluted and 100 μl of each dilution was added to microtiter plate wells in triplicate. Overnight cultures of bacterial cells were diluted to a final inoculum of approximately 5×10^6 cfu/mL, and 100 μl of this suspension was added to all wells yielded 5×10^5 cfu/well. Cell concentrations and viability were verified by serial dilution and plating for each experiment. […] The MBC was determined as the lowest concentration of compound at which there were no colonies growing on the plate.
(§3) MIC values for the compounds of the invention were determined by the broth microdilution method as described herein. […] After microtiter plates were incubated and MICs determined, aliquots from each of the wells were placed on TSA plates and incubated to determine the MBC values for each of the compounds. The MBC was determined as the lowest concentration of compound at which there were no colonies growing on the plate. […] SDS was used for comparison in these studies.

[2] = system: Pseudomonas aeruginosa strain Boston 41501 ATCC® 27853™; assay: Broth microdilution MIC and MBC, P. aeruginosa; type: cell-based; details: 37° C., 72 h, MBC and MIC values identical
Experimental: as §1, §2, §3

[3] = system: Escherichia coli ATCC® 25922™; details: 100 μM of compound; for time when all cells were killed, E. coli (G−): […]10^6 cfu/ml, room temperature, up to 72 h
Text: (§4) Bacterial strains Staphylococcus aureus subsp. aureus ATCC® 29213™, Entercoccus faecalis ATCC® 29212™, Escherichia coli ATCC® 25922™, and Pseudomonas aeruginosa strain Boston 41501 ATCC® 27853™ were obtained from the American type Culture Collection (ATCC, Manassas, Va., USA). S. aureus and E. faecalis are Gram-positive pathogens, P. aeruginosa is a Gram-negative pathogen, and E. coli is a non-pathogenic Gram-negative organism. All strains are reference strains for the Clinical and Laboratory Standards Institute (CLSI) for antimicrobial susceptibility testing of nonfastidious bacteria, and were grown in Mueller-Hinton broth at 37° C. as recommended (Wayne, Pa. National Committee for Clinical Laboratory Standards (2009) Methods for Dilution Antimicrobial Tests for Bacteria That Grow Aerobically—Approved Standard M07-A8).
(§5) Compounds were added to the cultures to a final concentration of 100 μM, and tubes were incubated at room temperature. […] Data reported are times when no colonies were observed growing on plates after overnight incubation.

[4] = system: Entercoccus faecalis ATCC® 29212™; details: 100 μM of compound, […]10^6 cfu/ml, room temperature, up to 72 h
Text: as §4, §5

[5] = system: Staphylococcus aureus subsp. aureus ATCC® 29213™; details: 100 μM of compound, […]10^6 cfu/ml, room temperature, up to 72 h
Text: as §4, §5

[6] = system: Escherichia coli ATCC® 25922™; assay: Broth microdilution MIC and MBC, E. coli; type: cell-based; details: 37° C., 72 h, MBC and MIC values identical
Experimental: as §1, §2, §3

[7] = system: Entercoccus faecalis ATCC® 29212™; assay: Broth microdilution MIC and MBC, E. faecalis; type: cell-based; details: 37° C., 72 h, MBC and MIC values identical
Experimental: as §1, §2, §3

## 1-hexadecyloxy-3,5-bis[(trimethlammonoum bromide)methyl]benzene [3,5-C16 (10)]
[1]
  MICs and MBCs, S. aureus (G+): 16 µM
[2]
  MICs and MBCs, P. aeruginosa (G−): >63 µM
[3]
  time necessary to kill […]10^6 cfu/mL, E. coli: ≤ 15 min
  time when all cells were killed, E. coli (G−): 0.25 h
[4]
  time when all cells were killed, E. faecalis (G+): 0.25 h
[5]
  time when all cells were killed, S. aureus (G+): 0.25 h
[6]
  MICs and MBCs, E. coli (G−): 63 µM
[7]
  MICs and MBCs, E. faecalis (G+): 31 µM

## 1-tetradecyloxy-2,5-bis(4,4′-bipyridinium)benzene, bis-bromide salt [2,5-C14dipyr (41)]
[1]
  MICs and MBCs, S. aureus (G+): 16 µM
[2]
  MICs and MBCs, P. aeruginosa (G−): 125 µM
[6]
  MICs and MBCs, E. coli (G−): 16 µM
[7]
  MICs and MBCs, E. faecalis (G+): 31 µM

## CCCCCCCCCCCCOS(=O)(=O)[O-].[Na+] [SDS (13), SDS, reference compound]
[1]
  MICs and MBCs, S. aureus (G+): 250 µM
[2]
  MICs and MBCs, P. aeruginosa (G−): >500 µM
[6]
  MICs and MBCs, E. coli (G−): >500 µM
[7]
  MICs and MBCs, E. faecalis (G+): 500 µM

## [(2-tetradecyloxy-m-phenylene)dimethylene]bis[trimethylamonium bromide] [2,6-C14 (8)]
[1]
  MICs and MBCs, S. aureus (G+): 16 µM
[2]
  MICs and MBCs, P. aeruginosa (G−): 500 µM
[5]
  time when all cells were killed, S. aureus (G+): 48 h
[6]
  MICs and MBCs, E. coli (G−): 125 µM
[7]
  MICs and MBCs, E. faecalis (G+): 50 µM

## [(2-tetradecyloxy-o-phenylene)dimethylene]bis[trimethylamonium bromide] [2,3-C14 (1)]
[1]
  MICs and MBCs, S. aureus (G+): 6 µM
[2]
  MICs and MBCs, P. aeruginosa (G−): 125 µM
[3]
  time when all cells were killed, E. coli (G−): 0.5 h
[4]
  time when all cells were killed, E. faecalis (G+): 24 h
[5]
  time when all cells were killed, S. aureus (G+): 1 h
[6]
  MICs and MBCs, E. coli (G−): 63 µM
[7]
  MICs and MBCs, E. faecalis (G+): 31 µM

## [(5-tetradecyloxy-m-phenylene)dimethylene]bis[trimethylamonium bromide] [3,5-C14 (9)]
[1]
  MICs and MBCs, S. aureus (G+): 8 µM
[2]
  MICs and MBCs, P. aeruginosa (G−): >63 µM
[3]
  time when all cells were killed, E. coli (G−): 1 h
[4]
  time when all cells were killed, E. faecalis (G+): 1 h
[5]
  time when all cells were killed, S. aureus (G+): 1 h
[6]
  MICs and MBCs, E. coli (G−): 31 µM
[7]
  MICs and MBCs, E. faecalis (G+): 31 µM

## [(6-tetradecyloxy-m-phenylene)dimethylene]bis[trimethylamonium bromide] [2,4-C14 (2)]
[1]
  MICs and MBCs, S. aureus (G+): 6 µM
[2]
  MICs and MBCs, P. aeruginosa (G−): 125 µM
[3]
  time when all cells were killed, E. coli (G−): 1 h
[4]
  time when all cells were killed, E. faecalis (G+): 2 h
[5]
  time when all cells were killed, S. aureus (G+): 1 h
[6]
  MICs and MBCs, E. coli (G−): 31 µM
[7]
  MICs and MBCs, E. faecalis (G+): 16 µM
